Values joined by “and” are separate entries in the source; they are usually repeats but may differ in a detail not shown here. Equal entries are not always repeated. Toxic doses and inconclusive results are not listed.
Test system: CD2F1 mice, L1210 leukemia ip, survival T/C
Test: NCI In Vivo Anticancer Drug Screen. Data for tumor model L1210 Leukemia (intraperitoneal) in CD2F1 (CDF1) mice
Details: higher = longer survival
Outline: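 Transplantable tumor in mice; compound-treated vs vehicle-treated groups. Read-out = treated/control ratio of the measured endpoint.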

[1] = endpoint: mean survival time, dose: 100.0 mg/kg/injection, schedule: Q01DX009 (ip), vehicle: saline with Tween-80
[2] = endpoint: mean survival time, dose: 100.0 mg/kg/injection, schedule: Q04DX003 (ip), vehicle: saline with Tween-80
[3] = endpoint: mean survival time, dose: 200.0 mg/kg/injection, schedule: Q01DX009 (ip), vehicle: saline with Tween-80
[4] = endpoint: mean survival time, dose: 200.0 mg/kg/injection, schedule: Q04DX003 (ip), vehicle: saline with Tween-80
[5] = endpoint: mean survival time, dose: 400.0 mg/kg/injection, schedule: Q01DX009 (ip), vehicle: saline with Tween-80
[6] = endpoint: mean survival time, dose: 400.0 mg/kg/injection, schedule: Q04DX003 (ip), vehicle: saline with Tween-80
[7] = endpoint: mean survival time, dose: 100.0 mg/kg/injection, schedule: Q04DX002 (ip), vehicle: saline with Tween-80
[8] = endpoint: mean survival time, dose: 25.0 mg/kg/injection, schedule: Q01DX001 (ip), vehicle: saline with Tween-80
[9] = endpoint: mean survival time, dose: 100.0 mg/kg/injection, schedule: Q01DX009 (ip), vehicle: saline

Structure (SMILES): COC(=O)C12OCC34C(CC5C(C)=CC(=O)C(O)C5(C)C3C(O)C1O)OC(=O)C(OC(=O)CC(C)C)C24 (centres undefined)
- T/C (endpoint: mean survival time, dose: 0.12 mg/kg/injection, schedule: Q01DX009 (ip), vehicle: saline + alcohol): 101 % of control
- T/C (endpoint: mean survival time, dose: 0.13 mg/kg/injection, schedule: Q01DX009 (ip), vehicle: saline + alcohol): 102 % of control
- T/C (endpoint: mean survival time, dose: 0.25 mg/kg/injection, schedule: Q01DX009 (ip), vehicle: saline + alcohol): 100 % of control and 102 % of control
- T/C (endpoint: mean survival time, dose: 0.5 mg/kg/injection, schedule: Q01DX009 (ip), vehicle: saline + alcohol): 113 % of control and 95 % of control
- T/C (endpoint: mean survival time, dose: 1.0 mg/kg/injection, schedule: Q01DX009 (ip), vehicle: saline + alcohol): 101 % of control and 105 % of control
- T/C (endpoint: mean survival time, dose: 2.0 mg/kg/injection, schedule: Q01DX009 (ip), vehicle: saline + alcohol): 97 % of control and 104 % of control
- T/C (endpoint: mean survival time, dose: 4.0 mg/kg/injection, schedule: Q01DX009 (ip), vehicle: saline + alcohol): 104 % of control and 109 % of control

Structure (SMILES): c1cc(OCC2CO2)ccc1OCC1CO1 (centres undefined)
- T/C (endpoint: mean survival time, dose: 25.0 mg/kg/injection, schedule: Q01DX009 (ip), vehicle: Klucel (hydroxypropylcellulose) (HPC)): 110 % of control
- T/C (endpoint: mean survival time, dose: 50.0 mg/kg/injection, schedule: Q01DX009 (ip), vehicle: Klucel (hydroxypropylcellulose) (HPC)): 107 % of control
- T/C (endpoint: mean survival time, dose: 100.0 mg/kg/injection, schedule: Q01DX009 (ip), vehicle: Klucel (hydroxypropylcellulose) (HPC)): 113 % of control

Structure (SMILES): COC(CCN1C(=O)c2ccccc2C1=O)C(Br)C(=O)O (centres undefined)
- T/C [1]: 92 % of control
- T/C [2]: 101 % of control
- T/C [3]: 92 % of control
- T/C [4]: 97 % of control
- T/C [5]: 89 % of control
- T/C [6]: 98 % of control

Structure (SMILES): O=S(=O)(O)c1cc2cc(S(=O)(=O)O)c(O)cc2cc1O.[NH-]C1CCCCC1[NH-].[Pt+2]
- T/C (endpoint: median survival time, dose: 3.12 mg/kg/injection, schedule: Q04DX003 (ip), vehicle: saline): 114 % of control and 118 % of control
- T/C (endpoint: median survival time, dose: 6.25 mg/kg/injection, schedule: Q04DX003 (ip), vehicle: saline): 118 % of control and 110 % of control
- T/C (endpoint: median survival time, dose: 12.5 mg/kg/injection, schedule: Q04DX003 (ip), vehicle: saline): 113 % of control and 112 % of control
- T/C (endpoint: median survival time, dose: 50.0 mg/kg/injection, schedule: Q04DX003 (ip), vehicle: saline): 158 % of control
- T/C (endpoint: median survival time, dose: 100.0 mg/kg/injection, schedule: Q04DX003 (ip), vehicle: saline): 154 % of control and 207 % of control
- T/C (endpoint: median survival time, dose: 200.0 mg/kg/injection, schedule: Q04DX003 (ip), vehicle: saline): 229 % of control and 365 % of control

Structure (SMILES): NS(=O)(=O)c1cccc([As](=O)(O)O)c1
- T/C (endpoint: mean survival time, dose: 50.0 mg/kg/injection, schedule: Q04DX003 (ip), vehicle: saline): 105 % of control
- T/C (endpoint: mean survival time, dose: 100.0 mg/kg/injection, schedule: Q04DX003 (ip), vehicle: saline): 95 % of control
- T/C (endpoint: mean survival time, dose: 200.0 mg/kg/injection, schedule: Q04DX003 (ip), vehicle: saline): 94 % of control

Structure (SMILES): CN1C(=O)CCSC1=S
- T/C (endpoint: mean survival time, dose: 25.0 mg/kg/injection, schedule: Q04DX002 (ip), vehicle: saline with Tween-80): 94 % of control
- T/C (endpoint: mean survival time, dose: 50.0 mg/kg/injection, schedule: Q04DX002 (ip), vehicle: saline with Tween-80): 105 % of control
- T/C [7]: 105 % of control

Structure (SMILES): COc1cc2c(cc1OC)C1CC(=O)C3=C(CCCC3)N1CC2 (centres undefined)
- T/C [2]: 101 % of control
- T/C [4]: 95 % of control
- T/C [6]: 89 % of control

Structure (SMILES): CCCCSC(=O)Nc1ccccc1
- T/C [7]: 95 % of control
- T/C (endpoint: mean survival time, dose: 200.0 mg/kg/injection, schedule: Q04DX002 (ip), vehicle: saline with Tween-80): 92 % of control
- T/C (endpoint: mean survival time, dose: 400.0 mg/kg/injection, schedule: Q04DX002 (ip), vehicle: saline with Tween-80): 92 % of control

Structure (SMILES): Cc1ncc(COP(=O)(O)O)c(C=NC(C)C(=O)O)c1O.O.[Cu] (centres undefined)
- T/C (endpoint: mean survival time, dose: 6.25 mg/kg/injection, schedule: Q01DX001 (ip), vehicle: saline with Tween-80): 95 % of control
- T/C (endpoint: mean survival time, dose: 12.5 mg/kg/injection, schedule: Q01DX001 (ip), vehicle: saline with Tween-80): 92 % of control
- T/C [8]: 103 % of control

Structure (SMILES): CCCCCCCCCCCCCCCCn1cnc2c(Cl)ncnc21
- T/C (endpoint: mean survival time, dose: 12.5 mg/kg/injection, schedule: Q01DX005 (ip), vehicle: other): 94 % of control
- T/C (endpoint: mean survival time, dose: 25.0 mg/kg/injection, schedule: Q01DX005 (ip), vehicle: other): 91 % of control
- T/C (endpoint: mean survival time, dose: 50.0 mg/kg/injection, schedule: Q01DX005 (ip), vehicle: other): 91 % of control
- T/C (endpoint: mean survival time, dose: 100.0 mg/kg/injection, schedule: Q01DX005 (ip), vehicle: other): 92 % of control
- T/C (endpoint: mean survival time, dose: 200.0 mg/kg/injection, schedule: Q01DX005 (ip), vehicle: other): 89 % of control

Structure (SMILES): CSc1cc(=O)n(C2OC(COCc3ccccc3)C(OCc3ccccc3)C2OCc2ccccc2)c(=O)[nH]1 (centres undefined)
- T/C (endpoint: mean survival time, dose: 100.0 mg/kg/injection, schedule: Q01DX005 (ip), vehicle: saline): 111 % of control
- T/C (endpoint: mean survival time, dose: 200.0 mg/kg/injection, schedule: Q01DX005 (ip), vehicle: saline): 107 % of control

Structure (SMILES): c1ccc(CCNc2ncnc3nc[nH]c23)cc1
- T/C (endpoint: mean survival time, dose: 6.25 mg/kg/injection, schedule: Q01DX005 (ip), vehicle: water): 94 % of control
- T/C (endpoint: mean survival time, dose: 12.5 mg/kg/injection, schedule: Q01DX005 (ip), vehicle: water): 96 % of control
- T/C (endpoint: mean survival time, dose: 25.0 mg/kg/injection, schedule: Q01DX005 (ip), vehicle: water): 96 % of control
- T/C (endpoint: mean survival time, dose: 50.0 mg/kg/injection, schedule: Q01DX005 (ip), vehicle: water): 97 % of control
- T/C (endpoint: mean survival time, dose: 100.0 mg/kg/injection, schedule: Q01DX005 (ip), vehicle: water): 92 % of control
- T/C (endpoint: mean survival time, dose: 200.0 mg/kg/injection, schedule: Q01DX005 (ip), vehicle: water): 111 % of control

Structure (SMILES): C=C1C(=O)O[C@@H]2C[C@@]3(C)CCC[C@H](C)C3=C[C@H]12
- T/C [9]: 98 % of control
- T/C (endpoint: mean survival time, dose: 200.0 mg/kg/injection, schedule: Q01DX009 (ip), vehicle: saline): 101 % of control

Structure (SMILES): O=C(N/N=C/c1cccc2ccccc12)C(O)c1ccccc1 (centres undefined)
- T/C [1]: 104 % of control
- T/C [3]: 101 % of control
- T/C [5]: 98 % of control

Structure (SMILES): CCC1(c2ccccc2)C(=O)N(Cl)C(=O)N(Cl)C1=O
- T/C [8]: 101 % of control
- T/C (endpoint: mean survival time, dose: 50.0 mg/kg/injection, schedule: Q01DX001 (ip), vehicle: saline with Tween-80): 95 % of control
- T/C (endpoint: mean survival time, dose: 100.0 mg/kg/injection, schedule: Q01DX001 (ip), vehicle: saline with Tween-80): 95 % of control and 100 % of control

Structure (SMILES): Cc1cc(C)c2ccc(Cl)nc2n1
- T/C (endpoint: mean survival time, dose: 75.0 mg/kg/injection, schedule: Q01DX001 (ip), vehicle: other): 100 % of control

Structure (SMILES): CC(C)OP(=O)(OCCCO)C(Cl)Cl (centres undefined)
- T/C (endpoint: mean survival time, dose: 100.0 mg/kg/injection, schedule: Q01DX001 (ip), vehicle: saline): 100 % of control
- T/C (endpoint: mean survival time, dose: 200.0 mg/kg/injection, schedule: Q01DX001 (ip), vehicle: saline): 102 % of control
- T/C (endpoint: mean survival time, dose: 400.0 mg/kg/injection, schedule: Q01DX001 (ip), vehicle: saline): 102 % of control

Structure (SMILES): Cc1ccc(S(=O)(=O)OCC2OC(n3cnc4c(NC=O)ncnc43)C(OC=O)C2OC=O)cc1 (centres undefined)
- T/C (endpoint: mean survival time, dose: 25.0 mg/kg/injection, schedule: Q01DX009 (ip), vehicle: saline): 104 % of control
- T/C (endpoint: mean survival time, dose: 50.0 mg/kg/injection, schedule: Q01DX009 (ip), vehicle: saline): 102 % of control
- T/C [9]: 98 % of control

Structure (SMILES): CC(CNCCN)C[Si](C)(C)C (centres undefined)
- T/C (endpoint: mean survival time, dose: 6.25 mg/kg/injection, schedule: Q01DX009 (ip), vehicle: saline with Tween-80): 100 % of control
- T/C (endpoint: mean survival time, dose: 12.5 mg/kg/injection, schedule: Q01DX009 (ip), vehicle: saline with Tween-80): 98 % of control
- T/C (endpoint: mean survival time, dose: 25.0 mg/kg/injection, schedule: Q01DX009 (ip), vehicle: saline with Tween-80): 104 % of control

Structure (SMILES): C=CS(=O)(=O)CCc1ccccc1
- T/C (endpoint: mean survival time, dose: 50.0 mg/kg/injection, schedule: Q01DX001 (ip), vehicle: Klucel (hydroxypropylcellulose) (HPC)): 101 % of control
- T/C (endpoint: mean survival time, dose: 100.0 mg/kg/injection, schedule: Q01DX001 (ip), vehicle: Klucel (hydroxypropylcellulose) (HPC)): 111 % of control
- T/C (endpoint: mean survival time, dose: 200.0 mg/kg/injection, schedule: Q01DX001 (ip), vehicle: Klucel (hydroxypropylcellulose) (HPC)): 108 % of control

Structure (SMILES): C#CC(OC(C)=O)C1OC(n2cnc3c(Cl)nc(Cl)nc32)C(OC(C)=O)C1OC(C)=O (centres undefined)
- T/C (endpoint: median survival time, dose: 12.5 mg/kg/injection, schedule: Q01DX005 (ip), vehicle: distilled water + Tween-80): 109 % of control and 103 % of control
- T/C (endpoint: median survival time, dose: 25.0 mg/kg/injection, schedule: Q01DX005 (ip), vehicle: distilled water + Tween-80): 107 % of control and 100 % of control
- T/C (endpoint: median survival time, dose: 50.0 mg/kg/injection, schedule: Q01DX005 (ip), vehicle: distilled water + Tween-80): 103 % of control
- T/C (endpoint: median survival time, dose: 100.0 mg/kg/injection, schedule: Q01DX005 (ip), vehicle: distilled water + Tween-80): 108 % of control and 111 % of control
- T/C (endpoint: median survival time, dose: 200.0 mg/kg/injection, schedule: Q01DX005 (ip), vehicle: distilled water + Tween-80): 102 % of control and 111 % of control

Structure (SMILES): N#Cc1cnn2ccn(C3OC(COC(=O)c4ccccc4)C(OC(=O)c4ccccc4)C3OC(=O)c3ccccc3)c12 (centres undefined)
- T/C (endpoint: median survival time, dose: 50.0 mg/kg/injection, schedule: Q01DX005 (ip), vehicle: saline with Tween-80): 90 % of control
- T/C (endpoint: median survival time, dose: 100.0 mg/kg/injection, schedule: Q01DX005 (ip), vehicle: saline with Tween-80): 98 % of control
- T/C (endpoint: median survival time, dose: 200.0 mg/kg/injection, schedule: Q01DX005 (ip), vehicle: saline with Tween-80): 94 % of control

Source: PubChem BioAssay AID256 (DTP/NCI, 2004)
